Results published in patent US20180141913A1 (EISAI R & D MANAGEMENT CO., LTD., priority 2016, published 2018).

Tested on: MCF7-Y537S cells (MCF7 ER-alpha Y537S mutant)
Assay: In vitro proliferation (viability) assay, MCF7-Y537S cells
Assay type: cell-based
Conditions: Homo sapiens, MCF7; CellTiter-Glo, day 6 vs day 0; average ± standard deviation; free base and/or salt forms; read-out: MCF7 Y537S GI50
Procedure, shortened: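 MCF7 cells lentivirally transduced with WT or Y537S ESR1, blasticidin-selected; 1500 cells/well, compounds added next day as 10-point 1:4 dilutions in triplicate, refreshed day 3. CellTiter-Glo luminescence on day 6 versus day 0 plate gives GI50.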

CNC(=O)/C=C/CNCCOc1ccc(/C(=C(/CC(F)(F)F)c2ccccc2)c2ccc3[nH]nc(F)c3c2)cc1.Cl [Compound 21, (E)-N-methyl-4-((2-(4-((E)-4,4,4-trifluoro-1-(3-fluoro-1H-indazol-5-yl)-2-phenylbut-1-en-1-yl)phenoxy)ethyl)amino)but-2-enamide]
GI50: 10.2 ± 11.2 nM
